Test results reported in patent publication US12655116B2, “Substituted isophthalic acid diamides” (Bayer Aktiengesellschaft, priority 2020, dated 2026).

Experiments:
ABUTH [1] = assay: Pre-emergence herbicidal action against ABUTH; format: in vivo, Abutilon theophrasti; conditions: for Pre-emergence action against ABUTH (herbicidal activity): 80 g/ha, scored visually after 3 weeks vs untreated controls (100% = plants have died, 0% = like control plants); for Pre-emergence action against ABUTH (herbicidal activity in percent): dosage 20 g/ha, scored visually after 3 weeks vs untreated controls, 100% = plants have died, 0% = like control plants
Procedure, shortened: (§1)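 Greenhouse pots of sandy loam held seeds covered with soil, onto which the compound was applied before emergence. An aqueous suspension or emulsion of WP or EC was used at 600 to 800 l/ha with 0.2% wetting agent. Percent damage was judged visually at 3 weeks.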

ALOMY [2] = assay: Pre-emergence herbicidal action against ALOMY; format: in vivo, Alopecurus myosuroides; conditions: 80 g/ha, pre-emergence, scored visually after 3 weeks vs untreated controls (100% = plants have died, 0% = like control plants)
Procedure, shortened: as §1

AMARE [3] = assay: Pre-emergence herbicidal action against AMARE; format: in vivo, Amaranthus retroflexus
Procedure, shortened: as §1

AVEFA [4] = assay: Pre-emergence herbicidal action against AVEFA; format: in vivo, Avena fatua; conditions: 80 g/ha, pre-emergence
Procedure, shortened: as §1

ECHCG [5] = assay: Pre-emergence herbicidal action against ECHCG; format: in vivo, Echinochloa crus-galli
Procedure, shortened: as §1

MATIN [6] = assay: Pre-emergence herbicidal action against MATIN; format: in vivo, Matricaria inodora
Procedure, shortened: as §1

PHBPU [7] = assay: Pre-emergence herbicidal action against PHBPU; format: in vivo, Pharbitis purpurea; conditions: dosage 80 g/ha
Procedure, shortened: as §1

POLCO = assay: Pre-emergence herbicidal action against POLCO; format: in vivo, Polygonum convolvulus
Procedure, shortened: as §1

SETVI [8] = assay: Pre-emergence herbicidal action against SETVI; format: in vivo, Setaria viridis
Procedure, shortened: as §1

VERPE [9] = assay: Pre-emergence herbicidal action against VERPE; format: in vivo, Veronica persica; conditions: dosage 80 g/ha
Procedure, shortened: as §1

VIOTR [10] = assay: Pre-emergence herbicidal action against VIOTR; format: in vivo, Viola tricolor
Procedure, shortened: as §1

ABUTH [11] = assay: Post-emergence herbicidal action against ABUTH; format: in vivo, Abutilon theophrasti; conditions: visual assessment about 3 weeks after treatment vs untreated controls
Procedure, shortened: (§2)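 Foliar application at one-leaf stage of formulated test compounds, aqueous spray at 600–800 l/ha with 0.2% wetting agent. Greenhouse, optimal conditions, ~3 weeks; damage scored visually in % relative to untreated plants.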

ALOMY [12] = assay: Post-emergence herbicidal action against ALOMY; format: in vivo, Alopecurus myosuroides; conditions: dosage 20 g/ha, visual assessment about 3 weeks after treatment vs untreated controls
Procedure, shortened: as §2

AMARE [13] = assay: Post-emergence herbicidal action against AMARE; format: in vivo, Amaranthus retroflexus; conditions: 20 g/ha, visual assessment about 3 weeks after treatment, 100% = plants have died, 0% = like control plants
Procedure, shortened: as §2

AVEFA [14] = assay: Post-emergence herbicidal action against AVEFA; format: in vivo, Avena fatua; conditions: 20 g/ha, visual assessment about 3 weeks after treatment, 100% = plants have died, 0% = like control plants
Procedure, shortened: as §2

ECHCG [15] = assay: Post-emergence herbicidal action against ECHCG; format: in vivo, Echinochloa crus-galli
Procedure, shortened: as §2

MATIN [16] = assay: Post-emergence herbicidal action against MATIN; format: in vivo, Matricaria inodora
Procedure, shortened: as §2

PHBPU [17] = assay: Post-emergence herbicidal action against PHBPU; format: in vivo, Pharbitis purpurea
Procedure, shortened: as §2

SETVI [18] = assay: Post-emergence herbicidal action against SETVI; format: in vivo, Setaria viridis
Procedure, shortened: as §2

VERPE [19] = assay: Post-emergence herbicidal action against VERPE; format: in vivo, Veronica persica
Procedure, shortened: as §2

VIOTR [20] = assay: Post-emergence herbicidal action against VIOTR; format: in vivo, Viola tricolor
Procedure, shortened: as §2

DIGSA [21] = assay: Pre-emergence herbicidal action against DIGSA; format: in vivo, Digitaria sanguinalis
Procedure, shortened: as §1

DIGSA [22] = assay: Post-emergence herbicidal action against DIGSA; format: in vivo, Digitaria sanguinalis; conditions: 20 g/ha
Procedure, shortened: as §2

[23] = 20 g/ha, scored visually after 3 weeks vs untreated controls, 100% = plants have died, 0% = like control plants
[24] = 80 g/ha, scored visually after 3 weeks vs untreated controls (100% = plants have died, 0% = like control plants)

SMILES	Pre-emergence action against ABUTH (herbicidal activity) (ABUTH [1]) [%]	Pre-emergence action against ABUTH (herbicidal activity in percent) (ABUTH [1]) [%]	Pre-emergence action against ALOMY (herbicidal activity) (ALOMY [2]) [%]	Pre-emergence action against AMARE in % (AMARE [3]; [23]) [%]	Pre-emergence action against AMARE in % (AMARE [3]; [24]) [%]	Pre-emergence action against AVEFA in % (AVEFA [4]) [%]	Pre-emergence action against ECHCG in % (ECHCG [5]; 80 g/ha) [%]	Pre-emergence action against MATIN in % (MATIN [6]; dosage 20 g/ha) [%]	Pre-emergence action against MATIN in % (MATIN [6]; dosage 80 g/ha) [%]	Pre-emergence action against PHBPU in % (PHBPU [7]) [%]	Pre-emergence action against POLCO in % (POLCO; dosage 80 g/ha) [%]	Pre-emergence action against SETVI in % (SETVI [8]; dosage 80 g/ha) [%]	Pre-emergence action against VIOTR in % (VIOTR [10]; dosage 20 g/ha) [%]	Pre-emergence action against VIOTR in % (VIOTR [10]; dosage 80 g/ha) [%]	Post-emergence action against ABUTH in % (ABUTH [11]; dosage 20 g/ha) [%]	Post-emergence action against ALOMY in % (ALOMY [12]) [%]	Post-emergence action at 20 g/ha against AMARE in % (AMARE [13]) [%]	Post-emergence action at 20 g/ha against AVEFA in % (AVEFA [14]) [%]	Post-emergence action against MATIN in % (MATIN [16]; dosage 20 g/ha) [%]	Post-emergence action against VERPE in % (VERPE [19]; 20 g/ha) [%]	also measured
CSc1c(C(=O)Nc2nnnn2C)ccc(C(F)(F)F)c1C(=O)NCC(F)F [Example 1-86]	100	100	100	100	100	100	100	100	100	80	80	100	100	100	100	100	100	100	80	90	Pre-emergence action against ECHCG in % (ECHCG [5]; 20 g/ha): 90%; Pre-emergence action against SETVI in % (SETVI [8]; dosage 20 g/ha): 80%; Pre-emergence action against VERPE in % (VERPE [9]): 100%; Post-emergence action against ABUTH in % (ABUTH [11]; dosage 5 g/ha): 100%; Post-emergence action against ECHCG in % (ECHCG [15]; dosage 5 g/ha): 80%; Post-emergence action against ECHCG in % (ECHCG [15]; dosage 20 g/ha): 100%; Post-emergence action against PHBPU in % (PHBPU [17]; dosage 5 g/ha): 80%; Post-emergence action against PHBPU in % (PHBPU [17]; dosage 20 g/ha): 90%; Post-emergence action against SETVI in % (SETVI [18]; dosage 20 g/ha): 80%; Post-emergence action against VIOTR in % (VIOTR [20]; 5 g/ha): 90%; Post-emergence action against VIOTR in % (VIOTR [20]; 20 g/ha): 100%
CCn1nnnc1NC(=O)c1ccc(C(F)(F)F)c(C(=O)NC(C)C2CC2)c1C (stereo not drawn) [Example 2-31]	100	100	80	100	100	100	100	100	100	80	80	100	100	100	80	80	80	80	80	80	Pre-emergence action against POLCO in % (POLCO; dosage 20 g/ha): 80%; Pre-emergence action against DIGSA in % (DIGSA [21]; dosage 20 g/ha): 100%; Pre-emergence action against DIGSA in % (DIGSA [21]; dosage 80 g/ha): 100%; Post-emergence action against ECHCG in % (ECHCG [15]; dosage 5 g/ha): 80%; Post-emergence action against ECHCG in % (ECHCG [15]; dosage 20 g/ha): 90%; Post-emergence action against MATIN in % (MATIN [16]; dosage 5 g/ha): 80%; Post-emergence action against PHBPU in % (PHBPU [17]; dosage 5 g/ha): 80%; Post-emergence action against PHBPU in % (PHBPU [17]; dosage 20 g/ha): 90%; Post-emergence action against DIGSA (DIGSA [22]): 80%
CCc1c(C(=O)Nc2nnnn2CC)ccc(C(F)(F)F)c1C(=O)NC [Example 2-271]	100	100	80	100	100		100	100	100	100	80	100	100	100	100	100	100	80	100	90	Pre-emergence action against SETVI in % (SETVI [8]; dosage 20 g/ha): 100%; Pre-emergence action against VERPE in % (VERPE [9]): 100%; Pre-emergence action against DIGSA in % (DIGSA [21]; dosage 20 g/ha): 100%; Pre-emergence action against DIGSA in % (DIGSA [21]; dosage 80 g/ha): 100%; Post-emergence action against ABUTH in % (ABUTH [11]; dosage 5 g/ha): 100%; Post-emergence action against MATIN in % (MATIN [16]; dosage 5 g/ha): 100%; Post-emergence action against SETVI in % (SETVI [18]; dosage 5 g/ha): 100%; Post-emergence action against SETVI in % (SETVI [18]; dosage 20 g/ha): 100%; Post-emergence action against VERPE in % (VERPE [19]; 5 g/ha): 80%; Post-emergence action against VIOTR in % (VIOTR [20]; 5 g/ha): 80%; Post-emergence action against VIOTR in % (VIOTR [20]; 20 g/ha): 80%
